Measurements as given in publication PMC2913692 (The European journal of neuroscience, 2010).
Read-outs that look alike come from different tables or passages of the source. Values belong to the molecule of their own block, whether it stands above or below them.

Legend:
[1] = system: N-methyl-D-aspartate receptor (NMDAR), NR1 subunit coagonist site
[2] = system: N-methyl-D-aspartate receptor (NMDAR), NR1 subunit coagonist site; experiment: whole-cell voltage clamp of retinal ganglion cells; set-up: species or system Ambystoma tigrinum
[3] = system: N-methyl-D-aspartate receptor (NMDAR), NR1 subunit coagonist site; experiment: whole-cell voltage clamp; assay type: cell-based, Ambystoma tigrinum

SMILES: NCC(=O)O [glycine]
EC50 [1]: 118 ± 48.1 µM

EC50 [2]: 3.48 ± 1.05 µM
SMILES: N[C@H](CO)C(=O)O [D-serine]

SMILES: O=C(O)c1cc(O)c2ccc(Cl)cc2n1 [7CKA, 7-chlorokynurenic acid]
% of control at 25 μM [3]: 5.3 ± 1.0
